Reference: article PMC5931107, “Clinical pharmacodynamic/exposure characterisation of the multikinase inhibitor ilorasertib (ABT-348) in a phase 1 dose-escalation trial” (British Journal of Cancer, 2018)
Read-outs that look alike come from different tables or passages of the source.

Experiment: Plasma pharmacokinetics, Arm II (oral BID), phase 1 trial
Assay type: in vivo, human
Details: for half-life: read-out: t1/2 (harmonic mean) (converted); for Cmax: read-out: Cmax
Description: Pharmacokinetics of ilorasertib were evaluated in the dose-escalation cohort on blood samples that were collected on cycle 1 days 1 and 15. Parameters determined: Cmax, time to Cmax (Tmax), terminal phase elimination half-life (t1/2), clearance, apparent oral clearance (CL/F), and area under the plasma concentration-time curve from time 0 to time of last measurable concentration (AUCt) and from time 0 to infinity (AUC∞). For Arm I, blood samples were collected prior to dosing and at 0.5, 1, 2, 3, 4, 6, 8, 10 or 12, and 24 h after dosing on cycle 1 days 1 and 15; of note, for institutions not able to collect the 10- or 12-h post-dose sample, the 24-h sample was replaced with 22-h and 28-h post-dose samples. In Arm II, for the first dose, blood samples were collected pre-dose and at 1, 2, 3, and 4 h post-dose on cycle 1 days 1 and 15; for the second dose, samples were collected pre-dose and at 1, 2, 3, 4, 18, and 24 h after second dose on cycle 1 days 1 and 15. In Arm III, blood samples were collected prior to infusion, at 1 h 55 min (just before end of infusion), and at 0.5, 1, 2, 4, 6, 8, 10, and 24 h after end of infusion on cycle 1 days 1 and 15; here also, for institutions not able to collect the 8-h or 10-h after-end-of-infusion samples, the 24-h sample was replaced with 22-h and 28-h post-dose samples. The liquid chromatography (LC)-mass spectrometry (MS)/MS method was developed and validated in the Bioanalysis Department of AbbVie. Fifty microliter of human plasma (K2EDTA as anticoagulant) was fortified with 300 μL of deuterium-stable labelled internal standard and mixed well. A HybridSPE precipitation plate (50 mg/96 wells, Supelco Analytical, Munich, Germany) was used to directly load and elute (under slight vacuum) the fortified samples into a clean collection plate. Samples were dried before reconstitution with 100 μL of 20/80 (v/v) acetonitrile/water, and injected for LC-MS/MS analysis. A Halo C8 (Wilmington, DE, USA; 2.7 μm, 2.1 × 30 mm) was used on an Agilent 1290 Infinity UPLC pump (Agilent Technologies, Santa Clara, CA) to carry out the separation. An isocratic condition with 25/75/0.1 (v/v/v) acetonitrile/water/98% formic acid was used as the mobile phase. The flow rate was set to be 0.6 mL/min. An MPS 3 C ([…] Ruhr, Germany) autosampler was used to introduce samples onto the UPLC system. An API 4000 mass spectrometer (Applied Biosystems, Foster City, CA) was used in the multiple reactions monitoring mode for the detection and quantitation of analyte. Descriptive statistics were used for demographic variables. The numbers and percentages of patients with treatment-emergent AEs (TEAEs) were tabulated using the Medical Dictionary for Regulatory Activities version 16.0 system organ class and preferred term, and further classified according to CTCAE version 4.0 criteria. The safety data set included all patients who received one or more doses of ilorasertib. The pharmacokinetic data set included all patients who received one or more doses of ilorasertib and had one or more pharmacokinetic samples. Values for pharmacokinetic parameters were determined using non-compartmental methods, with data analysed separately for each arm. A repeated measures analysis was performed for Tmax and dose-normalised Cmax, AUCt, and AUC∞. The model included random effects for patient and fixed effects for dose level, day, and the interaction of dose level and day. To assess effects of exposure on pharmacodynamic biomarkers, Cmax was employed as the directly measured marker of exposure for the rapid changes in DBP and PlGF pre-steady-state, while AUC∞ reflected exposure variability at the time of post-multiple-dose skin biopsy. Descriptive statistics were used to summarise ECOG performance status. The efficacy data set included all patients who received one or more doses of ilorasertib.

[1] = human, plasma, po, 40 mg, Arm II PO BID 40 mg, day 1, N=2, mean (individual)
[2] = human, plasma, po, 40 mg, Arm II PO BID 40 mg, day 1, N=3
[3] = human, plasma, po, 40 mg, Arm II PO BID 40 mg, day 15, N=3
[4] = human, plasma, po, 60 mg, Arm II PO BID 60 mg, day 1, N=3
[5] = human, plasma, po, 60 mg, Arm II PO BID 60 mg, day 15, N=1
[6] = human, plasma, po, 60 mg, Arm II PO BID 60 mg, day 15, N=3
[7] = human, plasma, po, 90 mg, Arm II PO BID 90 mg, day 1, N=2, mean (individual)
[8] = human, plasma, po, 90 mg, Arm II PO BID 90 mg, day 15, N=3
[9] = human, plasma, po, 130 mg, Arm II PO BID 130 mg, day 1, N=3
[10] = human, plasma, po, 130 mg, Arm II PO BID 130 mg, day 1, N=4
[11] = human, plasma, po, 130 mg, Arm II PO BID 130 mg, day 15, N=1
[12] = human, plasma, po, 130 mg, Arm II PO BID 130 mg, day 15, N=3
[13] = human, plasma, po, 190 mg, Arm II PO BID 190 mg, day 15, N=2, mean (individual)
[14] = human, plasma, po, 190 mg, Arm II PO BID 190 mg, day 15, N=5
[15] = human, plasma, po, 230 mg, Arm II PO BID 230 mg, day 1, N=2, mean (individual)
[16] = human, plasma, po, 230 mg, Arm II PO BID 230 mg, day 1, N=3
[17] = human, plasma, po, 230 mg, Arm II PO BID 230 mg, day 15, N=1
[18] = human, plasma, po, 230 mg, Arm II PO BID 230 mg, day 15, N=4
[19] = human, plasma, po, 340 mg, Arm II PO BID 340 mg, day 1, N=1
[20] = human, plasma, po, 340 mg, Arm II PO BID 340 mg, day 1, N=3
[21] = human, plasma, po, 340 mg, Arm II PO BID 340 mg, day 15, N=1

Nc1ncc(-c2cnn(CCO)c2)c2scc(-c3ccc(NC(=O)Nc4cccc(F)c4)cc3)c12 [ilorasertib, Ilorasertib]
Tmax (Arm II, oral administration in two divided doses, versus Arm I): delayed by several hours
AUC(0-inf) [1]: 3.99 µg·h/mL
half-life [1]: 11 h
AUC(0-t) [2]: 3.72 ± 1.64 µg·h/mL
Cmax [2]: 0.25 ± 0.12 µg/mL
Tmax (human, plasma, po, 40 mg, Arm II PO BID 40 mg, day 1, N=3, read-out: Tmax): 7.3 ± 3.8 h
AUC(0-t) [3]: 3.75 ± 2.05 µg·h/mL
Cmax [3]: 0.19 ± 0.11 µg/mL
Tmax (human, plasma, po, 40 mg, Arm II PO BID 40 mg, day 15, N=3, read-out: Tmax): 10 h
AUC(0-t) [4]: 5.45 ± 1.46 µg·h/mL
Cmax [4]: 0.38 ± 0.14 µg/mL
Tmax (human, plasma, po, 60 mg, Arm II PO BID 60 mg, day 1, N=3, read-out: Tmax): 5.7 ± 3.8 h
AUC(0-inf) [5]: 5.43 µg·h/mL
half-life [5]: 11.8 h
AUC(0-t) [6]: 2.92 ± 0.71 µg·h/mL
Cmax [6]: 0.23 ± 0.06 µg/mL
Tmax (human, plasma, po, 60 mg, Arm II PO BID 60 mg, day 15, N=3, read-out: Tmax): 4.8 ± 2.8 h
AUC(0-inf) [7]: 4.03 µg·h/mL
half-life [7]: 10.1 h
AUC(0-t) (human, plasma, po, 90 mg, Arm II PO BID 90 mg, day 1, N=3): 3.92 ± 1.53 µg·h/mL
Tmax (human, plasma, po, 90 mg, Arm II PO BID 90 mg, day 1, N=3, read-out: Tmax): 9 ± 1 h
AUC(0-inf) (human, plasma, po, 90 mg, Arm II PO BID 90 mg, day 15, N=2, mean (individual)): 5.33 µg·h/mL
AUC(0-t) [8]: 4.06 ± 1.51 µg·h/mL
Cmax [8]: 0.32 ± 0.1 µg/mL
Tmax (human, plasma, po, 90 mg, Arm II PO BID 90 mg, day 15, N=3, read-out: Tmax): 7.6 ± 5.4 h
AUC(0-inf) [9]: 6.53 ± 4.46 µg·h/mL
half-life [9]: 18.6 ± 17.6 h
AUC(0-t) [10]: 5.07 ± 3.18 µg·h/mL
Cmax [10]: 0.6 ± 0.39 µg/mL
Tmax (human, plasma, po, 130 mg, Arm II PO BID 130 mg, day 1, N=4, read-out: Tmax): 7.5 ± 1.7 h
AUC(0-inf) [11]: 3.96 µg·h/mL
half-life [11]: 7.5 h
AUC(0-t) [12]: 2.4 ± 1.29 µg·h/mL
Cmax [12]: 0.26 ± 0.28 µg/mL
Tmax (human, plasma, po, 130 mg, Arm II PO BID 130 mg, day 15, N=3, read-out: Tmax): 11 ± 11.5 h
AUC(0-inf) (human, plasma, po, 190 mg, Arm II PO BID 190 mg, day 1, N=4): 17.8 ± 11.3 µg·h/mL
Cmax (human, plasma, po, 190 mg, Arm II PO BID 190 mg, day 1, N=7): 0.54 ± 0.28 µg/mL
Tmax (human, plasma, po, 190 mg, Arm II PO BID 190 mg, day 1, N=7, read-out: Tmax): 10.2 ± 6.7 h
AUC(0-inf) [13]: 10.7 µg·h/mL
half-life [13]: 8.4 h
AUC(0-t) [14]: 6.69 ± 5.22 µg·h/mL
Cmax [14]: 0.63 ± 0.38 µg/mL
Tmax (human, plasma, po, 190 mg, Arm II PO BID 190 mg, day 15, N=5, read-out: Tmax): 13.2 ± 10.2 h
AUC(0-inf) [15]: 9.14 µg·h/mL
half-life [15]: 9 h
AUC(0-t) [16]: 10.1 ± 3.62 µg·h/mL
Cmax [16]: 0.7 ± 0.23 µg/mL
Tmax (human, plasma, po, 230 mg, Arm II PO BID 230 mg, day 1, N=3, read-out: Tmax): 8.7 ± 1.2 h
AUC(0-inf) [17]: 13 µg·h/mL
half-life [17]: 8 h
AUC(0-t) [18]: 11.2 ± 4.34 µg·h/mL
Cmax [18]: 0.79 ± 0.46 µg/mL
Tmax (human, plasma, po, 230 mg, Arm II PO BID 230 mg, day 15, N=4, read-out: Tmax): 9.5 ± 0.6 h
AUC(0-inf) [19]: 98.8 µg·h/mL
half-life [19]: 39.6 h
AUC(0-t) [20]: 39.3 ± 14.8 µg·h/mL
Cmax [20]: 2.04 ± 0.87 µg/mL
Tmax (human, plasma, po, 340 mg, Arm II PO BID 340 mg, day 1, N=3, read-out: Tmax): 15 ± 8 h
AUC(0-t) [21]: 15.7 µg·h/mL
Cmax [21]: 0.77 µg/mL
Tmax (human, plasma, po, 340 mg, Arm II PO BID 340 mg, day 15, N=1, read-out: Tmax): 10 h
Tmax (human, plasma, po, Arm II PO BID all doses, day 1, N=26, read-out: Tmax): 9.2 ± 5 h
Tmax (human, plasma, po, Arm II PO BID all doses, day 15, N=22, read-out: Tmax): 9.7 ± 6.6 h
